Results as given in patent US20240252501A1 (MORGANDANE SCIENTIFIC, LLC, priority 2016, published 2024).
Like-named read-outs stand apart in the source and are kept apart here.

Columns and labels:
P-gp [1] = biological target: T1, P-gp (Homo sapiens, UniProt P08183); details: cell monolayers in vitro; cited from earlier work
[2] = in vivo; cited from earlier work
P-gp [3] = biological target: T1, P-gp; details: cited from earlier work
[4] = Plasma rivaroxaban concentration-time data and noncompartmental PK: single 20 mg rivaroxaban alone (Period I) vs with steady-state verapamil 360 mg (Period III), mild renal impairment or normal renal function; details: for CL/F / half-life / Tmax: human, in vivo; for CL/F: CL/F/kg; for half-life: t1/2
Procedure: Subjects with either mild renal impairment or with normal renal function were enrolled.
Renal function of the subjects was determined by measuring creatinine clearance (CLcr) rates. Subjects who had CLCr≥90 ml/min were categorized as having normal renal function whereas subjects who had CLcr 50-79 ml/min were categorized as mild renal impaired. Blood samples were collected and processed according to the standard protocols.

[5] = Example 1 rivaroxaban-verapamil drug-drug interaction study: rivaroxaban plasma levels; type: in vivo, human; details: concomitant verapamil vs rivaroxaban alone
Procedure: Cmax and AUC values for each dose are calculated.

prothrombin time = test: Prothrombin time (STAR Neoplastin method); type: in vivo, human
Text: As used herein, the term “prothrombin time” (PT) refers to a blood test that measures how long it takes blood to clot. In some embodiments, a prothrombin time test can be used to measure of a patient's haemostasis. In some embodiments, PT can be used to measure the effectiveness or exposure to a blood clotting drug. Persons having skill in the art sometimes interchangeably refer to a PT test as an INR. […] Additionally, PT measurements are subject to variability based on the test reagent and laboratory test ranges determined by each institution.
(§1) Additional pharmacodynamic metrics are also gathered for each patient, including, but not limited to: prothrombin time (using the STAR Neoplastin® method) and Factor Xa activity.
Blood samples were collected and processed according to the standard protocols.

Factor Xa [6] = biological target: T2, Factor Xa (Homo sapiens, UniProt P00742); test: Factor Xa activity in subjects; type: in vivo; details: concomitant verapamil vs rivaroxaban alone
T2 construct: host or cells: human subjects (ex vivo pharmacodynamics)
Text: as §1

[7] = Relationship between steady state rivaroxaban AUC and risk of major bleeding (FIG. 5); type: in vivo, human
Procedure: All show the geometric mean plus or minus one standard deviation. […] These four show the geometric mean and the full minimum and maximum subject value range.
Group “c” represents the average of the three subjects in Group “b” who had the highest AUCinf, which was about 8,143 μg·hr/L. The risk of major bleeding of the subjects in Group “c” were at least 5 times higher compared to the populations in Group “a” and not even visible on this scale.

[8] = Reported rivaroxaban serious bleeding adverse events; type: in vivo, human; details: concomitantly administered patients, who are 22% of total population receiving rivaroxaban
Text: 8, 2015, American Heart Association, Scientific Sessions 2015, and published at http://www.abstractsonline.com/pp8/#!/3795/presentation/37668).

[9] = fed subjects, studies 10989 and 11938, single 20 mg; cited from earlier work
[10] = cited from earlier work
Factor Xa [11] = biological target: T2, Factor Xa; details: 10 mg dose, cited from earlier work
[12] = cited from earlier work; remark: listed apart in the source
[13] = cited from earlier work; remark: listed apart in the source
[14] = Period III (rivaroxaban and verapamil), Group 2: Normal Renal Function, individual subjects
[15] = single 10 mg dose with a strong CYP3A4/Pgp inhibitor

T2 sequence (P00742 235-488 limits assumed): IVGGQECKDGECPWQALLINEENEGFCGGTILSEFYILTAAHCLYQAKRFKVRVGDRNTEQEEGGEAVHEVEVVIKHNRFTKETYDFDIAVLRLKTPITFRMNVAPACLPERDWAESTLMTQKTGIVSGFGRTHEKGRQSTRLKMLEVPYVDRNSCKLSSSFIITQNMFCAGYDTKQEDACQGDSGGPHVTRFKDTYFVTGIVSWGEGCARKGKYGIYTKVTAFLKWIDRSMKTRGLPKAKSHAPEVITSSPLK
T2 sequence (P00742 41-179 partner limits assumed): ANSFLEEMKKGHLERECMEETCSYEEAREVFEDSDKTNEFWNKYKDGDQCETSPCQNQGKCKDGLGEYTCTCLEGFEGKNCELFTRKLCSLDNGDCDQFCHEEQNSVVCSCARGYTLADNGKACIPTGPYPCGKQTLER
T1 sequence (P08183 whole entry): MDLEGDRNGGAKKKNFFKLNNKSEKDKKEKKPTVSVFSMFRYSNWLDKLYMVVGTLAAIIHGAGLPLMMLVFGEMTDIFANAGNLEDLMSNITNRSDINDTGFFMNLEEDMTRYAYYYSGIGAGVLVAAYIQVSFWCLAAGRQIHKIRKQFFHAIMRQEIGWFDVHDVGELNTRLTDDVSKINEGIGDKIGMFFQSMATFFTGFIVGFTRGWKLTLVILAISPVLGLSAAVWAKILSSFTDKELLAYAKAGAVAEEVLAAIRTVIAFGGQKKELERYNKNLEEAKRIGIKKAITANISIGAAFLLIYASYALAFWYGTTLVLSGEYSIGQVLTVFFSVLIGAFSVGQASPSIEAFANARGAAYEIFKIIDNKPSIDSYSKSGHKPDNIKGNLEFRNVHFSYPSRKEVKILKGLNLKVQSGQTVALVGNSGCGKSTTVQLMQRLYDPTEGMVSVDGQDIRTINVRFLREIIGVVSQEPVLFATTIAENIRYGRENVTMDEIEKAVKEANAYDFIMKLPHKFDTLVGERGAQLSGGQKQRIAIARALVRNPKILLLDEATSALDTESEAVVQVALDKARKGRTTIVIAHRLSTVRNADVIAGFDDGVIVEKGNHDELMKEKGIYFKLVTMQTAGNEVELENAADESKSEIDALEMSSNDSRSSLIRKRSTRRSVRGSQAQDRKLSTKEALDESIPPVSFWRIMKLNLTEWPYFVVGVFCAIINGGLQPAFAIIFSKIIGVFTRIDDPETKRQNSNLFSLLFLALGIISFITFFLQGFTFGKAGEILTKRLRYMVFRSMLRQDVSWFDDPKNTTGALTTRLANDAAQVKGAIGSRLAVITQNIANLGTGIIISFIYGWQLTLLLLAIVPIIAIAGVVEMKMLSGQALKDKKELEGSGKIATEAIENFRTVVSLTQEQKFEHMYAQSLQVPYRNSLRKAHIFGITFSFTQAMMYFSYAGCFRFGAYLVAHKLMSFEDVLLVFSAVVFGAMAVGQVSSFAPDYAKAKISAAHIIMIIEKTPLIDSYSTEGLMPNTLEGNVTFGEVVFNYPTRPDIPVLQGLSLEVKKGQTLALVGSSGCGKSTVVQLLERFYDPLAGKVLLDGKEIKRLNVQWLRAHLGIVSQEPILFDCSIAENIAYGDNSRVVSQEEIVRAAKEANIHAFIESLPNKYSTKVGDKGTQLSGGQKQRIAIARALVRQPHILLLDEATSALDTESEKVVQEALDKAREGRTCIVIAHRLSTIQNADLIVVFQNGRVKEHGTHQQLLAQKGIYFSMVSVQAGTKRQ

## CC[C@H]1OC(=O)[C@H](C)[C@@H](O[C@H]2C[C@@](C)(OC)[C@@H](O)[C@H](C)O2)[C@H](C)[C@@H](O[C@@H]2O[C@H](C)C[C@H](N(C)C)[C@H]2O)[C@](C)(O)C[C@@H](C)C(=O)[C@H](C)[C@@H](O)[C@]1(C)O [erythromycin]
P-gp [1]
  inhibition of P-gp-mediated efflux of rivaroxaban: did not inhibit
[2]
  renal elimination (unchanged): 2-15%

## COc1ccc(CCNCCCC(C#N)(c2ccc(OC)c(OC)c2)C(C)C)cc1OC (centres unmarked) [norverapamil]
P-gp [3]
  inhibitory potential toward P-gp: have inhibitory potential toward P-gp

## O=C(NC[C@H]1CN(c2ccc(N3CCOCC3=O)cc2)C(=O)O1)c1ccc(Cl)s1 [rivaroxaban, Rivaroxaban]
[4]; [14]
  CL/F/kg: 1.18 mL/min/kg
  CL/F: 1.11 mL/min/kg
[4]; 20 mg, Period I (rivaroxaban alone), Group 2: Normal Renal Function, outlier sample excluded, arithmetic mean
  CL/F: 1.8 mL/min/kg
[4]; 20 mg
  half-life: 9.44 h
  Tmax: 0.5 h
[4]; Period III (rivaroxaban and verapamil), Group 2: Normal Renal Function, median
  CL/F: 1.11 mL/min/kg
[4]
  half-life: 6.56 h
  Tmax: 0.5 h
[5]
  rivaroxaban plasma concentrations: higher rivaroxaban plasma concentrations
Prothrombin time; concomitant verapamil vs rivaroxaban alone
  prothrombin time (PT): prolonged PT
Prothrombin time; normal renal function and mild renal insufficiency, Day 1 and Day 15
  relationship between pharmacokinetics (plasma concentration) and pharmacodynamics (PT): clear linear relationship
Factor Xa [6]
  Factor Xa inhibition: increased Factor Xa inhibition
[7]; AUC approximately 2,026 μg·hr/L
  risk of major bleeding (Group a): about 3%
[7]; mild renal impairment, 20 mg rivaroxaban and 360 mg verapamil
  risk of major bleeding vs Group a (Group b): 2.5 times
[7]; three Group b subjects with highest AUCinf
  risk of major bleeding vs Group a (Group c): at least 5 times
[8]
  share of reported rivaroxaban serious bleeding adverse events: 30%
[9]
  AUC, average geometric mean (Group a): approximately 2,026 μg·hr/L
[10]; in vivo
  rivaroxaban dose eliminated in urine as unprocessed active drug: ~36%
  rivaroxaban dose eliminated through active renal secretion: 30%
  rivaroxaban dose eliminated through glomerular filtration: 6%
  share of rivaroxaban clearance by CYP3A4: approximately 18%
  share of rivaroxaban metabolized by CYP2J2: 14%
[10]; liver oxidative and hydrolytic pathways
  rivaroxaban dose subject to metabolic degradation: Approximately two-thirds
Factor Xa [11]; mild renal impairment
  AUEC for Factor Xa inhibition vs healthy subjects: 1.5 fold
Factor Xa [11]; moderate renal impairment
  AUEC for Factor Xa inhibition vs healthy subjects: 1.86 fold
Factor Xa [11]; severe renal impairment
  AUEC for Factor Xa inhibition vs healthy subjects: 2.0 fold
[12]; concomitant clarithromycin
  rivaroxaban exposure increase: 54%
[12]; concomitant erythromycin
  rivaroxaban exposure increase: 34%
[12]; concomitant fluconazole
  rivaroxaban exposure increase: 42%
[13]; 20 mg rivaroxaban with food, study 11938
  Cmax, upper boundary of 90% confidence interval: 317 ng/mL
[13]; 20 mg rivaroxaban
  steady state AUC, upper bound of 90% confidence interval (Label A): about 3,792 μg·hr/L
  steady state Cmax, upper bound of 90% confidence interval: 275 ng/mL
[13]; [15]
  Cmax: 268 ng/mL
  estimated steady state AUC (Label B): about 3,404 μg·hr/L
[13]; single 20 mg dose after a meal
  steady state AUC, upper boundary of 90% confidence interval (Label C): about 2,448 μg·hr/L
